Columns and labels:
[1] = system: HEK293 cells; test: [3H]D-serine transport in HEK293 cells; type: cell-based; settings: endogenous ASCT2
Protocol: (§1) The cell lines HEK293 and Flp-In TREx 293 were cultured at 37° C. in a 5% CO2 environment, using Dulbecco's Modified Eagle Medium (DMEM) containing 10% fetal bovine serum (FBS), 100 units/ml Penicillin G and 100 μg/ml streptomycin (P/S). The cells were seeded in a Poly-D-lysine coated 24-well plate at 6×10^4 cells/well. After culturing for 3 days in DMEM Medium containing 10% FBS and P/S, the cell were used for transport activity measurement. Before transport activity measurement, the cells were washed with transport activity measurement buffer (PBS+1 g/L D-glucose) prewarmed to 37° C. and incubated for 10 minutes at 37° C. in 500 μL of buffer. The transport activity measurement was initiated by addition of D-[^3H]serine-containing transport activity buffer at the indicated concentration. The reaction product produced after addition was incubated at 37° C. for the indicated time. The reaction was suspended by removing the D-[^3H]serine-containing transport activity buffer, and the product was washed 3 times with thoroughly cooled transport activity buffer. The cells were dissolved with 500 μL of 0.1 N NaOH and incubated for at least one hour. Protein concentration of the cell lysate was measured by BCA protein assay. The lysate was mixed with 1 mL of Emulsifier Safe (PerkinElmer, MA, USA) and the radioactivity of the lysate was measured with a β-scintillation counter (LSC-8000, Hitachi). In transport activity measurement for Na^+, HBSS (+Na^+: 125 mM NaCl, −Na^+: choline chloride, 4.8 mM KCl, 1.2 mM MgSO4, 1.2 mM KH2PO4, 1.3 mM CaCl2), 5.6 mM D-glucose and 25 mM HEPES was used instead of PBS. For the inhibition experiment, a non-radioactive labeled compound was included as the uptake substrate as shown in the drawing.

[2] = molecular target: T1, ASCT2 (Homo sapiens, UniProt Q15758); test: [3H]D-serine transport in HEK293 cells transfected with ASCT2; type: cell-based
T1 construct: expressed in transfected cells; host or cells: HEK293 cells
T1 sequence (Q15758 1-541): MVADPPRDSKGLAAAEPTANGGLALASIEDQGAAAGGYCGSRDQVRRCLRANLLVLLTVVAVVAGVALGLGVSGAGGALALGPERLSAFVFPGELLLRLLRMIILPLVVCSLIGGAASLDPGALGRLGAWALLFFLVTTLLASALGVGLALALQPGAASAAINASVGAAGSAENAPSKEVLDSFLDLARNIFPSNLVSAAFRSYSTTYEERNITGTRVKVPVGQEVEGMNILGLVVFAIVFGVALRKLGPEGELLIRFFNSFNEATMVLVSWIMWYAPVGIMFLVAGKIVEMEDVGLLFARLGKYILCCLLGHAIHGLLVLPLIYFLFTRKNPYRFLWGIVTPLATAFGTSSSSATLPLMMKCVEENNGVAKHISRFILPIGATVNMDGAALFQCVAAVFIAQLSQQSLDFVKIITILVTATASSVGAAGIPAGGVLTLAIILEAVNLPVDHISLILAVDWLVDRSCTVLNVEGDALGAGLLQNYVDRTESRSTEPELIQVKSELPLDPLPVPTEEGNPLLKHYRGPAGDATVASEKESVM
Protocol: The cell lines HEK293 and Flp-In TREx 293 were cultured at 37° C. in a 5% CO2 environment, using Dulbecco's Modified Eagle Medium (DMEM) containing 10% fetal bovine serum (FBS), 100 units/ml Penicillin G and 100 μg/ml streptomycin (P/S). The cells were seeded in a Poly-D-lysine coated 24-well plate at 6×10^4 cells/well. After culturing for 3 days in DMEM Medium containing 10% FBS and P/S, the cell were used for transport activity measurement. Before transport activity measurement, the cells were washed with transport activity measurement buffer (PBS+1 g/L D-glucose) prewarmed to 37° C. and incubated for 10 minutes at 37° C. in 500 μL of buffer. The transport activity measurement was initiated by addition of D-[^3H]serine-containing transport activity buffer at the indicated concentration. The reaction product produced after addition was incubated at 37° C. for the indicated time. The reaction was suspended by removing the D-[^3H]serine-containing transport activity buffer, and the product was washed 3 times with thoroughly cooled transport activity buffer. […] Protein concentration of the cell lysate was measured by BCA protein assay. The lysate was mixed with 1 mL of Emulsifier Safe (PerkinElmer, MA, USA) and the radioactivity of the lysate was measured with a β-scintillation counter (LSC-8000, Hitachi). […]

[3] = system: Flp-In TREx 293 cell line; test: D-[3H]serine uptake in Flp-In TREx 293 cell line in the presence of inhibitors; type: cell-based; settings: 10 minutes
Protocol: as §1

[4] = system: mouse brush border membrane vesicles (BBMV); test: D-[3H]serine transport activity measurement with mouse BBMVs; type: biochemical
Protocol: Total mouse kidneys were extracted by perfusion using PBS buffer at pH 7.4, and then immediately frozen with liquid nitrogen and stored at −80° C. until use. The frozen kidneys were resuspended in buffer containing 20 mM Tris-HCl at pH 7.6, 250 mM mannitol, 1 mM EDTA and Complete EDTA-free protease inhibitor cocktail (Roche, Switzerland), and crushed using a PHYSCOTRON (Microtec Co., Ltd.). The sample was then homogenized using a Potter-Elvehjem homogenizer. After centrifugation at 1,000×g for 5 minutes at 4° C., the supernatant was centrifuged at 3,000×g for 5 minutes at 4° C. After centrifugation, the supernatant was mixed with 1 M MgCl2 at a final concentration of 11 mM MgCl2, and incubated on ice for 20 minutes. This was followed by centrifugation at 3,000×g for 15 minutes at 4° C., and then ultracentrifugation of the supernatant containing crude membrane vesicles at 438,000×g for 30 minutes at 4° C. The pellet remaining after ultracentrifugation (BBMVs) was suspended in buffer containing 20 mM Tris-HCl at pH 7.6 and 250 mM mannitol. The BBMVs were quantified using a BCA protein quantitation kit (Thermo Fisher Scientific). The BBMVs were cryopreserved at −80° C. until use. Before transport activity measurement, the cryopreserved BBMVs were thawed to allow introduction of potassium into the BBMVs, after which they were ultracentrifuged at 438,000×g for 30 minutes at 4° C., and the pellet was then suspended in buffer containing 10 mM Tris-HCl at pH 7.6, 100 mM KCl and 100 mM mannitol to a 5 mg/mL protein concentration, and the BBMV suspension was incubated on ice overnight. Before measurement of the transport activity, valinomycin was added to the BBMV sample to a final concentration of 5 μM and the mixture was incubated at room temperature for 30 minutes. […] The used filter was melted with Clear-sol I (Nacalai Tesque, Inc.) and the radioactivity on the filter was measured using a β-scintillation counter (LSC-8000, Hitachi).

[5] = molecular target: T2, hSMCT1 (Homo sapiens, UniProt Q8N695); test: D-[3H]serine uptake in FlpIn293TR-hSLC5A8-3×FLAG stable cell line; type: cell-based; settings: 20 μM D-[3H]serine, 10 minutes
T2 construct: A final pcDNA5-hSLC5A8_NM145913-3×FLAG positive clone was obtained and named “pcDNA5-hSLC5A8-3×FLAG”; expressed in transfected cells
T2 sequence (Q8N695 1-610): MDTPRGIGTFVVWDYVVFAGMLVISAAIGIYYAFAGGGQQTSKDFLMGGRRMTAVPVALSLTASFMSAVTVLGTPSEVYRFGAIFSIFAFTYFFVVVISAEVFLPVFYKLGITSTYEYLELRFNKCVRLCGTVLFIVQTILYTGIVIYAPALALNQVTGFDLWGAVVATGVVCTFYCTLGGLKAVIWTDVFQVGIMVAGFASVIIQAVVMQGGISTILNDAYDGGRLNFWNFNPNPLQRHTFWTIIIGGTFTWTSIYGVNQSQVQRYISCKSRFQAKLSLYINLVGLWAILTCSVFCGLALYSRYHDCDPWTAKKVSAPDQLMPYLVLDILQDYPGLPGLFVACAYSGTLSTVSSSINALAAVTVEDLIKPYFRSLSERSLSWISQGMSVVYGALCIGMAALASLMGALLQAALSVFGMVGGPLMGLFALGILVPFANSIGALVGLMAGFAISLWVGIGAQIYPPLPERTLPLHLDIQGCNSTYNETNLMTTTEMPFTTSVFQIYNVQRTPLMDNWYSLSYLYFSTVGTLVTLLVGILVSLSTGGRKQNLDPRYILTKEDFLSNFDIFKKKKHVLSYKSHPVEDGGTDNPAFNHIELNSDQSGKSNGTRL
Protocol: (§2) The stable cell line FlpIn293 TR was seeded in a poly-D-lysine-coated 24-well plate at 5×10^4 cells/well (Mock) or 6×10^4 cells/well (hSLC5A8 and hSLC5A12 cells), and after 24 hours, 1 mg/L doxycycline hyclate was added to induce recombinant gene expression. The cells were continuously cultured for 2 days and transport activity measurement was conducted at 80% to 90% confluence. In an ASCT2 knockdown experiment, the seeded cells were transfected after 12 hours with ASCT2 siRNA at 10 pmol/well, using Lipofectamine 3000. Before transport activity measurement, the cells were washed 3 times with transport activity buffer (PBS+1 g/L D-glucose) warmed to 37° C. and incubated for 10 minutes at 37° C. in 500 μL of buffer. The transport activity measurement was initiated by addition of D-[^3H]serine-containing transport activity buffer at the indicated concentration. The reaction product produced after addition was incubated at 37° C. for the indicated time. The reaction was suspended by removing the D-[^3H] serine-containing transport activity buffer, and the product was washed 3 times with thoroughly cooled transport activity buffer. […] Protein concentration of the cell lysate was measured by BCA protein assay. The lysate was mixed with 1 mL of Emulsifier Safe (PerkinElmer, MA, USA) and the radioactivity of the lysate was measured with a β-scintillation counter (LSC-8000, Hitachi). […]

[6] = molecular target: T3, hSMCT2 (Homo sapiens, UniProt Q1EHB4); test: D-[3H]serine uptake in FlpIn293TR-hSLC5A12-3×FLAG stable cell line; type: cell-based; settings: 20 μM D-[3H]serine, 10 minutes
T3 construct: expressed in transfected cells
T3 sequence (Q1EHB4 1-618): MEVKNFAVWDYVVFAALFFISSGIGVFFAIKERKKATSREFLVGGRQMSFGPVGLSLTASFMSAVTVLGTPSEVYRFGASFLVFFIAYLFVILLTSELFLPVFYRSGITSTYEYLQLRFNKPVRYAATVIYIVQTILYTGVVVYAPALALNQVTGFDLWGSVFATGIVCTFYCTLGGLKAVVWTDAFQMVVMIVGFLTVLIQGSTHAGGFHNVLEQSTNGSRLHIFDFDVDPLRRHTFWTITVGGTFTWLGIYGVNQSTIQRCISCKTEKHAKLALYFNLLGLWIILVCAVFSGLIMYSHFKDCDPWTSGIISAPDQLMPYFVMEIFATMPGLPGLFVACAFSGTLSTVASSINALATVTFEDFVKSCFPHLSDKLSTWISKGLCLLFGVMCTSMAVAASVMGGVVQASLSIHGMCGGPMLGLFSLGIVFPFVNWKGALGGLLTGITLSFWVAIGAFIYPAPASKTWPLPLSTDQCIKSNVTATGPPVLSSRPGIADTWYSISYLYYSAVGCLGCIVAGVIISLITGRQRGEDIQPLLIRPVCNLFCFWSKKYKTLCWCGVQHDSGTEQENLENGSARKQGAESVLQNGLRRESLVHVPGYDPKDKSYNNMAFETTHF
Protocol: as §2

[7] = system: FlpIn293TR-hSLC5A12-3×FLAG (SMCT2)-stable cell line; test: Toxicity test (XTT) in SMCT2-stable cell line; type: cell-based; settings: 500 μM ibuprofen added with D-serine to SMCT2 cells
Protocol: (§3) A toxicity test for stable cells was carried out using an FlpIn293TR-stable cell line. The cells were seeded in a poly-D-lysine-coated 96-well plate at 6.5×10^3 cells/well (Mock) and 8×10^3 cells/well (hSLC5A8 and hSLC5A12 cells), while in antibiotic-free DMEM+dialyzed FBS medium. After 24 hours, they were treated with L- or D-serine at different concentrations and 1 mg/L of doxycycline hyclate was added to induce recombination gene expression. For the ASCT2 knockdown experiment, the seeded cells were transfected after 12 hours with ASCT2 siRNA at 2 pmol/well, using Lipofectamine 3000. The effect of ibuprofen was analyzed by simultaneous addition with D-serine treatment. The cells were cultured for 2 days to 80% confluence. The proliferated cell count was determined by XTT measurement in the same manner as described above.

[8] = system: FlpIn293TR-hSLC5A8-3×FLAG (SMCT1)-stable cell line; test: Toxicity test (XTT) in SMCT1-stable cell line; type: cell-based; settings: 500 μM ibuprofen added with D-serine to SMCT1 cells
Protocol: as §3

NCCCC(=O)O [GABA, γ-aminobutyric acid]
[3H]D-serine transport [1]: inhibit | [3H]D-serine transport [2]: inhibited

N[C@@H](CCC(=O)Nc1ccc([N+](=O)[O-])cc1)C(=O)O [GPNA, L-γ-glutamyl-p-nitroanilide]
Uptake of D-[3H]serine [3]: inhibited

CSCC[C@H](N)C(=O)O [L-methionine]
[3H]D-serine transport [1]: inhibited | Uptake of D-[3H]serine [3]: inhibited

C[C@@H](O)[C@H](N)C(=O)O [L-threonine]
[3H]D-serine transport [1]: inhibited | Uptake of D-[3H]serine [3]: inhibited | uptake activity inhibited ([4]; 2 mM L-threonine, 10 μM D-[3H]serine, measuring time 30 seconds): About 70%

CC(=O)Oc1ccccc1C(=O)O [acetylsalicylic acid]
D-[3H]serine transport [5]: inhibited | D-[3H]serine transport [6]: inhibited

CC(C)Cc1ccc(C(C)C(=O)O)cc1 (centres unmarked) [ibuprofen]
effect of ibuprofen on D-serine effect on cell proliferation [7]: reduced the D-serine effect to the same level as the Mock cells | effect of ibuprofen on D-serine effect on cell proliferation [8]: reduced the D-serine effect to the same level as the Mock cells | D-[3H]serine transport [5]: inhibited | D-[3H]serine transport [6]: inhibited | D-[3H]serine transport activity ([4]; 1 and 3 mM ibuprofen, 50 μM D-[3H]serine, 1 minute): strongly inhibited

O=C(O)c1cccnc1 [nicotinic acid]
Na+-dependent uptake inhibited ([4]; 1 mM nicotinic acid, 10 μM D-[3H]serine, measuring time 30 seconds): approximately 30%

S-benzyl-L-cystine [Benzyl-Cys]
Uptake of D-[3H]serine [3]: inhibited
